# Measurements reported in patent US20220024882A1, “NOVEL TUMOR ANTIGEN BINDING AGENTS AND USES THEREOF” (ITM Isotopen Technologien München AG, priority 2018, published 2022).
# Legend:
# [1] = test system: PSMA-positive PC-3 PIP tumor cells; assay: Cell uptake and internalization, PSMA-positive cells; format: cell-based
# Excerpt: (§1) Cell uptake and internalization of ^177Lu-Ibu-PSMA, ^177Lu-Ibu-Dα-PSMA, ^177Lu-Ibu-Dβ-PSMA, ^177Lu-Ibu-N-PSMA and ^177Lu-Ibu-DAB-PSMA were investigated using PSMA-positive PC-3 PIP and PSMA-negative PC-3 flu tumor cells kindly provided by Prof. Dr. Martin Pomper (John Hopkins Institutions, Baltimore, U.S.; Eiber, M.; Fendler, W. P.; Rowe, S. P.; Calais, J.; Hofman, M. S.; Maurer, T.; Schwarzenboeck, S. M.; Kratowchil, C.; Herrmann, K.; Giesel, F. L. Prostate-specific membrane antigen ligands for imaging and therapy. J Nucl Med 2017, 58, (Suppl 2), 67S-76S). Each radioligand was investigated by the performance of experiments performed 3 times in triplicate with PC-3 PIP tumor cell and once in triplicate with PC-3 flu tumor cells.
# (§2) Cell uptake and internalization of ^177Lu-Ibu-sPSMA were investigated using PSMA-positive PC-3 PIP and PSMA-negative PC-3 flu tumor cells kindly provided by Prof. Dr. Martin Pomper (Johns Hopkins University School of Medicine, Baltimore, Md., U.S.A.) (Eiber, et al.; J Nucl Med 2017, 58, (Suppl 2), 67S-76S). ^177Lu-Ibu-sPSMA was investigated by performing experiments 3 times in 6 replicates with PC-3 PIP tumor cells and 3 times in 6 replicates with PC-3 flu tumor cells.
# [2] = Plasma protein binding, ultrafiltration assay; format: in vitro ADME; settings: incubated in human plasma at 37° C., read-out: fraction of radioligand retained in the filter membrane (serum protein binding) (converted)
# Method: In short, the PSMA-ligands were labeled with ^177Lu at a specific activity of 50 MBq/nmol and incubated in human plasma samples or PBS at room temperature. The free and plasma-bound fractions were separated using a centrifree ultrafiltration device (4104 centrifugal filter units; Millipore, 30000 Da nominal molecular weight limit, methylcellulose micropartition membranes). The incubated solution was loaded to the ultrafiltration device and centrifuged at 2500 rpm for 40 min at 20° C. Samples from the filtrate were taken and analyzed for radioactivity in a γ-counter. The amount of plasma-bound radioligand was calculated as the fraction of radioactivity measured in the […] relative to the corresponding loading solution (set to 100%). The experiments were performed at least 3 times for each radioligand.
# Plasma protein-binding properties of ^177Lu-Ibu-sPSMA were determined using an ultrafiltration assay according to Benesova, M. et al. (Mol Pharm 2018, 15, (3), 934-946). In short, the Ibu-sPSMA-ligand was labeled with ^177Lu at a molar activity of 50 MBq/nmol and incubated in human plasma samples or PBS at 37° C. […] Samples from the filtrate were taken and analyzed for radioactivity in a γ-counter. The amount of plasma-bound radioligand was calculated as the fraction of radioactivity measured in the […] relative to the corresponding loading solution (set to 100%). […]
# [3] = test system: PSMA-negative PC-3 flu tumor cells; assay: Cell uptake, PSMA-negative cells; format: cell-based; settings: after 4 h
# Excerpt: as §1, §2
structure (smiles),measurement,setting,value
"CC(C)Cc1ccc(C(C)C(=O)NCC[C@H](NC(=O)CN2CCN(CC(=O)O)CCN(CC(=O)O)CCN(CC(=O)O)CC2)C(=O)NCC2CCC(C(=O)N[C@@H](Cc3ccc4ccccc4c3)C(=O)NCCCC[C@H](NC(=O)N[C@@H](CCC(=O)O)C(=O)O)C(=O)O)CC2)cc1 (stereo partly shown) [^177Lu-Ibu-sPSMA, metal not drawn]",internalized fraction,[1]; 2 h incubation,18%
same,internalized fraction,[1]; 4 h incubation,22%
same,fraction unbound,[2],~0.03
same,uptake in PC-3 flu tumor cells,[3],< 0.1%
